Laboratory results as given in US12441730B2, “PRMT5 inhibitors” (Merck Sharp & Dohme LLC, priority 2019, dated 2025).
Where two headings read alike, the source gives them in different places.

How the values were obtained:
[1] = molecular target: T1, Full-length (FL)-PRMT5-MEP50 enzyme complex (Homo sapiens, UniProt O14744); assay: PRMT5-MEP50 Enzyme Methylation Assay (Version A); format: biochemical
T1 construct: Full-length (FL)-PRMT5-MEP50 enzyme complex (recombinant proteins from baculovirus-transfected Sf21 cells: FL-PRMT5; MW=73837 kDa and FL-MEP50; MW=38614); made in house; host or cells: baculovirus-transfected Sf21 cells
In short: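 Compound was pre-incubated with enzyme for 60 min, then reacted 150 min at 37° C. at final 1.0 nM PRMT5-MEP50, 15 μM SAM and 75 nM biotinylated H4R3(Me1) peptide, in 50 mM Bicine pH 8.0 with 1% DMSO. SAMDI mass-spectrometric readout of Me1→Me2 conversion. EC50 from 4- or 7-parameter regression.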

[2] = test system: symmetric dimethylation of arginine (SDMA) of PRMT5 substrates in MCF-7 cells; assay: PRMT5 Cell Target Engagement (TE) Assay; format: cell-based; conditions: 3 days treatment, SDMA high content imaging
In short: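 MCF-7 cells treated 3 days at 37 °C with a ten-point 1:3 titration from 10000 nM. Fixed cells immunostained with anti-SDMA and Alexa488 secondary; nuclear fluorescence quantified by high-content imaging versus DMSO wells, with IC50 from a 4-parameter fit.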

[3] = second value of 7 parameter biphasic fit, read-out: Enzyme Methylation Assay Version A (EC50 2)
[4] = single EC50 = 4 parameter single site sigmoidal fit, EC50 1 = first value of 7 parameter biphasic fit, read-out: Enzyme Methylation Assay Version A (EC50 or EC50 1)

T1 sequence (O14744 whole entry): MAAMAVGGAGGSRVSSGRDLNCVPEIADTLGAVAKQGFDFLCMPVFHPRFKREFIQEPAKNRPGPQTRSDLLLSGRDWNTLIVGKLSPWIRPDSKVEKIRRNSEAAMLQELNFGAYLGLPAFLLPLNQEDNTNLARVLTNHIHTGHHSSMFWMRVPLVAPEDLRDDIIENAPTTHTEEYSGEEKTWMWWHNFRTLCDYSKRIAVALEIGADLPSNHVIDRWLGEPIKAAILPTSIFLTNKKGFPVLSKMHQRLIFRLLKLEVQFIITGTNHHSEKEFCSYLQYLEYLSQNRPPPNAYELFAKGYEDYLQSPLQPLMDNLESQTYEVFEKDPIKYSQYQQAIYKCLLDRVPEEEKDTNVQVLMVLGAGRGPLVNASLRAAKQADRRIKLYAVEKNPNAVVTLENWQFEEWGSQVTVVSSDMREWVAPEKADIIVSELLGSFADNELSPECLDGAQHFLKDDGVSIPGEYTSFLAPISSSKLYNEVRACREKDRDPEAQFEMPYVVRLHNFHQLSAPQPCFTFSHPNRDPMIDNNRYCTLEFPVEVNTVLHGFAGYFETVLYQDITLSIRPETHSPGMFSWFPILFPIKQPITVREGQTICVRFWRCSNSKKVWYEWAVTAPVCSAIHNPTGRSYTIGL
T1 sequence (Q9BQA1 whole entry partner): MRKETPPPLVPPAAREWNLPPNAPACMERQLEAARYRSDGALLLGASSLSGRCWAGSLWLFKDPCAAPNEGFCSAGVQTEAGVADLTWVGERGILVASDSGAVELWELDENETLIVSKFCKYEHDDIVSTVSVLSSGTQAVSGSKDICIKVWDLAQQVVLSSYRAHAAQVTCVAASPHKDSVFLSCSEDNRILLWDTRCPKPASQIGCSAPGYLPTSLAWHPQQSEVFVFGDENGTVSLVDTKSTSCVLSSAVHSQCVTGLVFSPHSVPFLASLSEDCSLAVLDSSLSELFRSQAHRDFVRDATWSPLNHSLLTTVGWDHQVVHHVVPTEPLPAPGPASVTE

| SMILES | EC50 [1, 3] [nM] | EC50 [1, 4] [nM] | EC50 ([2]; Homo sapiens, MCF7, 72 h) [nM] | EC50 [2] [nM] |
| --- | --- | --- | --- | --- |
| O=C(c1cn2c(n1)CCC(C(F)(F)F)C2)N1CC[C@]2(Cc3ccccc3CN2)[C@H](O)C1 (stereo partly drawn) [Example 54, [(3R,3′R)-3′-hydroxy-1,4-dihydro-1′H,2H-spiro[isoquinoline-3,4′-piperidin]-1′-yl][6-(trifluoromethyl)-5,6,7,8-tetrahydroimidazo[1,2-a]pyridin-2-yl]methanone] | 2660 | 8.01 | 169 |  |
| COC(C)c1cnc2nc(C(=O)N3CC[C@]4(Cc5ccccc5CN4)[C@H](O)C3)cn2c1 (single isomer, unassigned) [Example 136] |  | 32.9 | 146 |  |
| O=C(c1cn2cc(Br)cc(C(F)(F)F)c2n1)N1CC[C@]2(Cc3ccccc3CN2)[C@H](O)C1 [Example 55, [6-bromo-8-(trifluoromethyl)imidazo[1,2-a]pyridin-2-yl][(3R,3′R)-3′-hydroxy-1,4-dihydro-1′H,2H-spiro[isoquinoline-3,4′-piperidin]-1′-yl]methanone] | 170 | 0.817 | 1.17 |  |
| Cc1nn(C)c2ncc(C(=O)N3CC[C@]4(Cc5ccccc5CN4)[C@H](O)C3)c(Cl)c12 [Example 180, (4-chloro-1,3-dimethyl-1H-pyrazolo[3,4-b]pyridin-5-yl)((3R,3′R)-3′-hydroxy-1,4-dihydro-2H-spiro[isoquinoline-3,4′-piperidin]-1′-yl)methanone] | 52500 | 51.3 | 1320 |  |
| O=C(c1cn2cc(C3CC3)ncc2n1)N1CC[C@]2(Cc3ccccc3CN2)[C@H](O)C1 [Example 134, (6-cyclopropylimidazo[1,2-a]pyrazin-2-yl)[(3R,3′R)-3′-hydroxy-1,4-dihydro-1′H,2H-spiro[isoquinoline-3,4′-piperidin]-1′-yl]methanone] |  | 143 | 184 |  |
| COc1ccc(C)cc1-n1cnc(C(=O)N2CC[C@]3(Cc4ccccc4CN3)[C@H](O)C2)c1 [Example 213, [(3R,3′R)-3′-hydroxy-1,4-dihydro-1′H,2H-spiro[isoquinoline-3,4′-piperidin]-1′-yl][1-(2-methoxy-5-methylphenyl)-1H-imidazol-4-yl]methanone] | 343 | 4.33 | 209 |  |
| CO[C@H](C)c1cc(N(C)Cc2nonc2C)cn2cc(C(=O)N3CC[C@]4(Cc5ccccc5CN4)[C@H](O)C3)nc12 [Example 234, [(3R,3′R)-3′-hydroxy-1,4-dihydro-1′H,2H-spiro[isoquinoline-3,4′-piperidin]-1′-yl](8-[(1R)-1-methoxyethyl]-6-{methyl[(4-methyl-1,2,5-oxadiazol-3-yl)methyl]amino}imidazo[1,2-a]pyridin-2-yl)methanone] |  | 6.82 | 23.8 |  |
| O=C(c1cn2cc(Br)cc(N3CCCC3=O)c2n1)N1CC[C@]2(Cc3ccccc3CN2)[C@H](O)C1 [Example 14, 1-(6-bromo-2-((3R3’R)-3′-hydroxy-1,4-dihydro-2H-spiro[isoquinoline-3,4′-piperidine]-1′-carbonyl)imidazo[1,2-a]pyridin-8-yl)pyrrolidin-2-one] | 57500 | 100 | 547 |  |
| CCC1Oc2ccc(C(=O)N3CC[C@]4(Cc5ccccc5CN4)[C@H](O)C3)cc2NC1=O (single isomer, unassigned) [Example 104, (2R or 2S)-2-ethyl-6-((3R,3′R)-3′-hydroxy-1,4-dihydro-2H-spiro[isoquinoline-3,4′-piperidine]-1′-carbonyl)-2H-benzo[b][1,4]oxazin-3(4H)-one] | 1410 | 1.44 |  | 83.1 |
| CO[C@H](C)c1cc(-c2ccnn2C(C)C)cn2cc(C(=O)N3CC[C@]4(Cc5ccccc5CN4)[C@H](O)C3)nc12 [Example 243, [(3R,3′R)-3′-hydroxy-1,4-dihydro-1′H,2H-spiro[isoquinoline-3,4′-piperidin]-1′-yl]{6-(1-isopropyl-1H-pyrazol-5-yl)-8-[(1R)-1-methoxyethyl]imidazo[1,2-a]pyridin-2-yl}methanone] |  | 1.17 | 3.59 |  |
| O=C(c1cc2n(n1)CCS(=O)(=O)C2)N1CC[C@]2(Cc3ccccc3CN2)[C@H](O)C1 [Example 177, (5,5-dioxido-6,7-dihydro-4H-pyrazolo[5,1-c][1,4]thiazin-2-yl)((3R,3′R)-3′-hydroxy-1,4-dihydro-2H-spiro[isoqiuinoline-3,4′-piperidin]-1′-yl)methanone] |  | 1910 | ≥ 10000 |  |
| O=C(c1cn2c(n1)C(C1CCOC1)CC(C(F)(F)F)C2)N1CC[C@]2(Cc3ccccc3CN2)[C@H](O)C1 (single isomer, unassigned) [Example 162, ((3R,3′R)-3′-hydroxy-1,4-dihydro-2H-spiro[isoquinoline-3,4′-piperidin]-1′-yl)((6S,8S or 6R,8R)-8-((S or R)-tetrahydrofuran-3-yl)-6-(trifluoromethyl)-5,6,7,8-tetrahydroimidazo[1,2-a]pyridin-2-yl)methanone] | 93300 | 260 |  | 7520 |
| O=C(c1cn2cc(C3CC3(F)F)cnc2n1)N1CC[C@]2(Cc3ccccc3CN2)[C@H](O)C1 (single isomer, unassigned) [Example 77] | 108 | 1.46 |  | 23.8 |
| COc1nc2nc(C(=O)N3CC[C@]4(Cc5ccccc5CN4)[C@H](O)C3)cn2cc1C1CC1 [Example 251, (6-cyclopropyl-7-methoxyimidazo[1,2-a]pyrimidin-2-yl)[(3R,3′R)-3′-hydroxy-1,4-dihydro-1′H,2H-spiro[isoquinoline-3,4′-piperidin]-1′-yl]methanone] |  | 547 | 1850 |  |

The next molecules have a lower EC50 [1, 4] than those just listed; values first:

| EC50 [1, 3] [nM] | EC50 [1, 4] [nM] | EC50 ([2]; Homo sapiens, MCF7, 72 h) [nM] | EC50 [2] [nM] | SMILES |
| --- | --- | --- | --- | --- |
| 75.3 | 0.501 | 2.92 |  | O=C(c1cn2cc(Br)ccc2n1)N1CC[C@]2(Cc3ccccc3CN2)[C@H](O)C1 [Example 1, (6-bromoimidazo[1,2-a]pyridin-2-yl)((3R,3′R)-3′-hydroxy-1,4-dihydro-2H-spiro[isoquinoline-3,4′-piperidin]-1′-yl)methanone] |
| 55 | 0.207 | 12.4 |  | O=C(c1cn2cc(Cl)cc(Br)c2n1)N1CC[C@]2(Cc3ccccc3CN2)[C@H](O)C1 [Example 210, (8-bromo-6-chloroimidazo[1,2-a]pyridin-2-yl)[(3R,3′R)-3′-hydroxy-1,4-dihydro-1′H,2H-spiro[isoquinoline-3,4′-piperidin]-1′-yl]methanone] |
| 105 | 0.305 | 10.2 |  | COCCOc1nc(Br)cn2cc(C(=O)N3CC[C@]4(Cc5ccccc5CN4)[C@H](O)C3)nc12 [Example 19, (6-bromo-8-(2-methoxyethoxy)imidazo[1,2-a]pyrazin-2-yl)((3R,3’R)-3′-hydroxy-1,4-dihydro-2H-spiro[isoquinoline-3,4′-piperidin]-1′-yl)methanone] |
| 692 | 0.763 | 100 |  | O=C(c1cn2cc(F)cc(Br)c2n1)N1CC[C@]2(Cc3ccccc3CN2)[C@H](O)C1 [Example 208, (8-bromo-6-fluoroimidazo[1,2-a]pyridin-2-yl)[(3R,3′R)-3′-hydroxy-1,4-dihydro-1′H,2H-spiro[isoquinoline-3,4′-piperidin]-1′-yl]methanone] |
| 42.1 | 0.687 | 1.32 |  | Cc1cc(Br)cn2cc(C(=O)N3CC[C@]4(Cc5ccccc5CN4)[C@H](O)C3)nc12 [Example 44, (6-bromo-8-methylimidazo[1,2-a]pyridin-2-yl)((3R,3’R)-3′-hydroxy-1,4-dihydro-2H-spiro[isoquinoline-3,4′-piperidin]-1′-yl)methanone] |
| 298 | 0.515 | 13.8 |  | COc1cc2nc(C(=O)N3CC[C@]4(Cc5ccccc5CN4)[C@H](O)C3)cn2cc1Br [Example 125] |
| 146 | 0.461 | 4.09 |  | O=C(c1cn2cc(Br)cnc2n1)N1CC[C@]2(Cc3ccccc3CN2)[C@H](O)C1 [Example 24, (6-bromoimidazo[1,2-a]pyrimidin-2-yl)((3R,3’RR)-3′-hydroxy-1,4-dihydro-1′H,2H-spiro[isoquinoline-3,4′-piperidin]-1′-yl)methanone] |
| 209 | 0.513 | 2.44 |  | O=C(c1cn2cc(C(F)F)ccc2n1)N1CC[C@]2(Cc3ccccc3CN2)[C@H](O)C1 [Example 41, (6-(difluoromethyl)imidazo[1,2-a]pyridin-2-yl)((3R,3’R)-3′-hydroxy-1,4-dihydro-2H-spiro[isoquinoline-3,4′-piperidin]-1′-yl)methanone] |
|  | 0.746 |  | 7.75 | N#CC1(c2cnc3nc(C(=O)N4CC[C@]5(Cc6ccccc6CN5)[C@H](O)C4)cn3c2)CC12CC2 (single isomer, unassigned) [Example 82] |
| 62.4 | 0.38 | 1.48 |  | COc1cc(Br)cn2cc(C(=O)N3CC[C@]4(Cc5ccccc5CN4)[C@H](O)C3)nc12 [Example 50, (6-bromo-8-methoxyimidazo[1,2-a]pyridin-2-yl)((3R,3’R)-3′-hydroxy-1,4-dihydro-2H-spiro[isoquinoline-3,4′-piperidin]-1′-yl)methanone] |
